Assays:
E. coli [1] = test: Inhibition of RIND XXXV reduction by E. coli, microtitration plate, fluorescence (Example 2, Table III); format: cell-based, Escherichia coli (ATCC 25922); details: Escherichia coli, 0.5 h, E. coli (gram -), 37° C., 30 min, read-out: Corrected Percent Inhibition
Procedure: (§1) gram-negative microorganism Escherichia coli (ATCC 25922), gram-positive microorganism Staphylococcus aureus (ATCC 25923), and Candida albicans yeast cells (ATCC 14053), brain heart infusion broth (BHI) and Sabaroud's dextrose broth (SAB) from Difco Laboratories (Detroit, Michigan, U.S.A.), and Aspergillus flavus (ATCC 20047), a mold from American Type Culture Collection (Rockville, Maryland, U.S.A.).
(§2) E. coli and S. aureus were grown overnight in BHI broth at 37° C. C. albicans and A. flavus were grown overnight at 25° C. in SAB broth with agitation. The cells were harvested by centrifugation, washed and resuspended in 0.05 molar N-2-hydroxyethylpiperazine-N'-2-ethanesulfonic acid (HEPES) buffer (pH 7.8).
(§3) Dispersions containing RIND compounds were prepared by dissolving, for example, RIND VII from Table I above in N,N-dimethylformamide (DMF) at 16 mg compound per ml of solvent. An aliquot (250 μl) of the resulting solution was added to 500 μl of TRITON X-100 surfactant. This mixture was then added dropwise with stirring to 25 ml of 0.05 molar HEPES buffer. A solution containing a water-compatible RIND compound (for example, RIND XXXV) was prepared by dissolving the compound in N,N-dimethylformamide which had been acidified with 0.1% sulfuric acid (16 mg RIND compound per ml of solvent).
(§4) A composition was prepared from the following components: 100 μl RIND XXXV solution (16 mg RIND compound per ml of acidified N,N-dimethylformamide), 200 μl glucose solution (10% in water), 200 μl trimethyl-1,4-benzoquinone ETA solution (1.5 mg/ml methanol) and 10 ml HEPES buffer.
(§5) Test solutions were prepared using the following reagents: 50 μl HEPES buffer, 50 μl filipin polyene antibiotic (12.5 mg/ml dimethylsulfoxide)(serial dilutions of buffer and antibiotic solutions were performed to obtain various antibiotic concentrations), 50 μl of the appropriate cell suspensions, that is, E. coli (about 10^8 cells/ml), S. aureus (about 10^8 cells/ml), C. albicans (about 10^7 cells/ml) and A. flavus, and […] of the RIND composition described above.
(§6) Control solutions were prepared as described in Example 1. Relative fluorescence was measured using a Dynatech MICROFLUOR Reader (Dynatech Laboratories, Alexandria, Virginia) modified to read at excitation 540 nm and emission 620 nm, at zero time and after incubation at 37° C. for 30 minutes. The change in relative fluorescence was then determined as the difference of the two values.

A. flavus [2] = test: Inhibition of RIND XXXV reduction by A. flavus (mold), microtitration plate, fluorescence (Example 2, Table III); format: cell-based, Aspergillus flavus (ATCC 20047); details: Aspergillus flavus, 0.5 h, 37° C., 30 min, read-out: Corrected Percent Inhibition
Procedure: as §1, §2, §3, §4, §5, §6

E. coli [3] = test: Inhibition of MTT tetrazolium salt reduction by E. coli, microtitration plate (Example 3, Table IV); format: cell-based, Escherichia coli (ATCC 25922); details: Escherichia coli, 0.5 h, E. coli (gram -), 540 nm, 37° C., 30 min, read-out: Corrected Percent Inhibition
Procedure: as §1, §2
(§7) The differentiations of yeast and mold from bacteria were carried out in microtitration plates. The cell suspensions used were like those described in Example 2. The reducible compound used was 3-(4,5-dimethyl-2-thiazolyl)-2,5-diphenyl-2H-tetrazolium bromide (MTT). A composition containing MTT was prepared with the following components: 200 μl MTT solution (5 mg/ml methanol), 200 μl glucose solution (10% glucose in water), 200 μl trimethyl-1,4-benzoquinone ETA and 12 ml of HEPES buffer (0.05 molar, pH 7.8).
as §5, with “components:” for “reagents:”, “suspension, i.e.” for “suspensions, that is,”, “MTT” for “RIND”, “noted” for “described”, “above. Cell Controls contained all reagents except the antibiotic. Background was measured with buffer. Solution Controls contained all reagents except cells.” for “above.”
(§8) Optical density measurements were made at 540 nm using a commercially available spectrophotometer, and the change in optical density (ΔOD) was determined after 30 minutes at 37° C. […] It is apparent that the concentration effective for differentiation of yeast is different than for mold. However, it is well within the skill of a worker in the art to determine the appropriate concentration for a given test.

A. flavus [4] = test: Inhibition of MTT tetrazolium salt reduction by A. flavus (mold), microtitration plate (Example 3, Table IV); format: cell-based, Aspergillus flavus (ATCC 20047); details: Aspergillus flavus, 0.5 h, 540 nm, 37° C., 30 min, read-out: Corrected Percent Inhibition
Procedure: as §1, §2, §7
as §5, with “components:” for “reagents:”, “suspension, i.e.” for “suspensions, that is,”, “MTT” for “RIND”, “noted” for “described”, “above. Cell Controls contained all reagents except the antibiotic. Background was measured with buffer. Solution Controls contained all reagents except cells.” for “above.”
as §8

C. albicans = test: Inhibition of RIND XXXV reduction by C. albicans, dry analytical element (Example 4, Table V); format: cell-based, Candida albicans (ATCC 14053); details: C. albicans (yeast), 37° C., 30 min
Procedure: as §1, §2
Dispersions containing RIND compounds were prepared by dissolving, for example, RIND VII from Table I above in N,N-dimethylformamide (DMF) at 16 mg compound per ml of solvent. An aliquot (250 μl) of the resulting solution was added to 500 μl of TRITON X-100 surfactant. […]
A standard paper punch was used to cut circular elements (about 0.6 cm in diameter) from the dried strips. […] Buffer solution was applied to separate elements for background readings.
Relative fluorescence (excitation at 540 nm and emission at 620 nm) was measured using a Dynatech MICROFLUOR reader at zero time and after 30 minutes incubation at 37° C., and the change in relative fluorescence was determined.

## CCCCC[C@@H](O)[C@H]1C(=O)O[C@H](C)[C@@H](O)/C=C/C=C/C=C/C=C/C=C(\C)[C@@H](O)C[C@H](O)C[C@H](O)C[C@H](O)C[C@H](O)C[C@H](O)C[C@@H]1O [Filipin, filipin]
E. coli [1]; 0.26 mg/ml
  inhibition at 260 µg/mL: 0%
E. coli [1]; 0.52 mg/ml
  inhibition at 520 µg/mL: 0%
E. coli [1]; 1.04 mg/ml
  inhibition at 1040 µg/mL: 2%
E. coli [1]; 2.08 mg/ml
  inhibition at 2080 µg/mL: 17.6%
A. flavus [2]; 0.26 mg/ml
  inhibition at 260 µg/mL: 31.9%
A. flavus [2]; 0.52 mg/ml
  inhibition at 520 µg/mL: 42.5%
A. flavus [2]; 1.04 mg/ml
  inhibition at 1040 µg/mL: 49.8%
A. flavus [2]; 2.08 mg/ml
  inhibition at 2080 µg/mL: 64.9%
E. coli [3]; 0.26 mg/ml
  inhibition at 260 µg/mL: 0%
E. coli [3]; 0.52 mg/ml
  inhibition at 520 µg/mL: 0%
E. coli [3]; 1.04 mg/ml
  inhibition at 1040 µg/mL: 0%
E. coli [3]; 2.08 mg/ml
  inhibition at 2080 µg/mL: 0%
A. flavus [4]; 0.26 mg/ml
  inhibition at 260 µg/mL: 0%
A. flavus [4]; 0.52 mg/ml
  inhibition at 520 µg/mL: 10.3%
A. flavus [4]; 1.04 mg/ml
  inhibition at 1040 µg/mL: 19%
A. flavus [4]; 2.08 mg/ml
  inhibition at 2080 µg/mL: 98.3%
C. albicans
  Corrected Percent Inhibition: 76%
